Structures are written as SMILES. Read-outs that look alike come from different tables or passages of the source. Marks after values point to notes of the source that are not given here.

In series [1] the test system is chorioallantoic membrane of a fertilized hen egg. The series can be described thus: Ocular irritation test HET-CAM. The procedure:
The ocular irritation test used was the substitution test HET-CAM (Hen's Egg Test—Chorioallantoic Membrane), published in the Official Journal dated 26 Dec. 1996. It is recommended by ICCVAM.
At 0.5, 2 and 5 mins post-contact, the three following criteria are observed and scored: hemorrhage, coagulation and hyperemia.

Series [2] relates to BHK-21 line. The series can be described thus: Model 3: cytotoxicity on the BHK-21 line, qPCR of 18S gene. Conditions: ACV 1 mg/L, 8 h post-contact of 2 mins. Type of series: cell-based. From the text:
(§1) Symp. Quant. […] Model 1:

The test system of series [3] is BHK-21 line. The series can be described thus: Model 4: cytotoxicity on the BHK-21 line, qPCR of 18S gene. The series is classed as cell-based. Conditions: ACV 10^3 mg/L, 8 h post-contact of 2 mins.
Source text: as §1

Series [4] concerns HSV-1. Nature of the series: Model 2: Mixture 1 on cells not yet infected with HSV-1, qPCR of viral genome in BHK-21. The series is classed as cell-based, Herpes simplex 1.
Source text: as §1

The subject of series [5] is BHK-21 line. Nature of the series: Model 1: cytotoxicity on the BHK-21 line, qPCR of 18S gene. Type of series: cell-based. Conditions: ACV 1 mg/L, 8 h post-contact of 2 mins.
Source text: as §1

For series [6], the system named is HSV-1. Nature of the series: Model 1: Mixture 1 on cells infected with HSV-1, qPCR of viral genome in BHK-21. The series is classed as cell-based, Herpes simplex 1.
Source text: as §1

For series [7], the system named is HSV-1. Nature of the series: Model 3: Mixture 1 on cells not yet infected and on free HSV-1, qPCR of viral genome in BHK-21. The series is classed as cell-based, Herpes simplex 1.
Source text: as §1

Series [8] relates to HSV-1. Nature of the series: Model 4: Mixture 1 on HSV-1 before infection, qPCR of viral genome in BHK-21. The series is classed as cell-based, Herpes simplex 1.
Source text: as §1

Series [9] has as its system BHK-21 line. The series can be described thus: Model 2: cytotoxicity on the BHK-21 line, qPCR of 18S gene. The series is classed as cell-based. Conditions: ACV 1 mg/L, 8 h post-contact of 2 mins.
Source text: as §1

Series [10] relates to immature erythrocytes (reticulocytes). The procedure:
The morbidity, the mortality, the weight of the animals and the clinical parameters (temperature, skin, hair, eyes, mucous membranes, secretions and excretions, respiratory and neurological function, gait and posture) were noted. 36 h to 48 h after the second treatment, the blood of the animals was collected and analyzed in flow cytometry (toxicity control: reduction of the proportion of immature erythrocytes (CD-71-positive). The proportion of micro-nucleated immature erythrocytes (reticulocytes) was evaluated on 4,000 observations per blood sample. Each rat population (n=10) for each tested substance represents 40,000 observations (Table 5).

Where [11] appears, read: control Line + (PBS + HSV), ACV 1 mg/L, 8 h post-contact of 2 mins.
The mark [12] stands for this setting: 100 mg/kg intraperitoneal, female.
[13] abbreviates: 100 mg/kg intraperitoneal, male.
Where [14] appears, read: 150 mg/kg intraperitoneal, female.
Where [15] appears, read: 150 mg/kg intraperitoneal, male.

As for `CCCCCCCCCCCCOS(=O)(=O)[O-].[Na+]` [1% SDS, sodium dodecyl sulfate], in series [1], the “IS of the positive substances of reference” value stood at 10±2.

As to `Nc1nc2c(ncn2COCCO)c(=O)[nH]1` [ACV, acyclovir], the “18S (%), multiplication of the BHK-21 line by qPCR” value in the series on BHK-21 line [2] (control Line + (PBS + HSV)) is reported as 92 (1) %; in the series with BHK-21 line [2] (control Line + (PBS − HSV)), 111 (1) %; in the series on BHK-21 line [3] (control Line + (PBS + HSV)), 111%; in the series with BHK-21 line [3] (control Line + (PBS − HSV)), 97%; in the series with BHK-21 line [5] (control Line + (PBS + HSV)) it was 118 (1) %; in the series on BHK-21 line [5] (control Line + (PBS − HSV)), 108 (1) %. Moreover, the entries for the “18S (%), multiplication of the BHK-21 line by qPCR” value with BHK-21 line [9] (control Line + (PBS + HSV)) and in the series with BHK-21 line [9] (control Line + (PBS − HSV)) were 62 (1) % and 57 (1) %, respectively. The “Reduction of the HSV-1 replication at t 8 h” value with HSV-1 [4] (contact 2 min, ACV 10^3 μg/L) is −1%; with HSV-1 [6] (contact 2 min, ACV 10^3 μg/L) it was −12%; in the series on HSV-1 [7] (contact 2 min, ACV 10^3 μg/L) it was −6%; with HSV-1 [8] (contact 2 min, [ACV]: 1 g/L) it was −52^# %. The “HSV (%), replication of HSV-1 by qPCR” value with HSV-1 [4] (setting [11]) is recorded as 61 (1) %; in the series with HSV-1 [6] (setting [11]), 76 (1) %; in the series on HSV-1 [7] (setting [11]), 86 (1) %; in the series on HSV-1 [8] (control Line + (PBS + HSV), ACV 10^3 mg/L, 8 h post-contact of 2 mins), 54%.

In the case of `O=P1(N(CCCl)CCCl)NCCCO1` (stereo not shown) [Cyclophosphamide, cyclophosphamide], the “Micro-nucleated reticulocytes (%)” value was 0.40 ± 0.13% in [10] (5 mg/kg intravenous, female); 0.56 ± 0.17% in [10] (5 mg/kg intravenous, male); 1.02 ± 0.26 % in [10] (10 mg/kg intravenous, female); 1.62 ± 0.29% in series [10] (10 mg/kg intravenous, male). For the same molecule, the “Reticulocytes (%)” value in series [10] (5 mg/kg intravenous, female) worked out at 2.41 ± 0.54%; in series [10] (5 mg/kg intravenous, male) it was 3.99 ± 0.49%; in series [10] (10 mg/kg intravenous, female), 1.30 ± 0.43%; in [10] (10 mg/kg intravenous, male) it was 1.95 ± 0.59%.

With `CCOS(C)(=O)=O` [Methanesulfonate, ethyl methanesulfonate], the “Micro-nucleated reticulocytes (%)” value in [10] (setting [12]) came to 0.48 ± 0.16 %; in series [10] (setting [13]), 0.68 ± 0.35 %; in series [10] (setting [14]) it was 0.59 ± 0.26 %; in [10] (setting [15]), 0.81 ± 0.48 %. Moreover, the “Reticulocytes (%)” value in series [10] (setting [12]) is listed as 1.86 ± 0.25%; in series [10] (setting [13]), 1.41 ± 0.32%; in series [10] (setting [14]), 0.45 ± 0.33%; in [10] (setting [15]), 1.33 ± 0.34%.

Consider `[Na+].[OH-]` [NaOH 0.1M, NaOH], for which, in series [1], the “IS of the positive substances of reference” value is given as 15±3.
